Data from PMC8365602 (Journal of Medicinal Chemistry, 2021).

How the values were obtained:
ovine COX-1 = biological target: T1, ovine COX-1 (Ovis aries, UniProt P05979); experiment: Isolated COX-1 activity; format: biochemical
T1 construct: purchased Cayman Chemicals
Protocol: Purified ovine COX-1 (Cayman Chemicals; 50 units) or human recombinant COX-2 (Cayman Chemicals; 20 units) was dissolved in 100 mM Tris buffer pH 8, 5 mM glutathione, 5 μM hemoglobin, and 100 μM EDTA. COX isoenzymes were preincubated with the vehicle (DMSO) or 27a for 5 min at 4 °C and 1 min at 37 °C. Addition of arachidonic acid (COX-1: 5 μM; COX-2: 2 μM) initiated the formation of COX-derived 12(S)-hydroxy-5-cis-8,10-trans-heptadecatrienoic acid (12-HHT), which was extracted and analyzed by RP-HPLC according to 5-LOX products.

[1] = Radical scavenging activity (DPPH); settings: DPPH
Protocol: Compound 27a was incubated with 2,2-diphenyl-1-picrylhydrazyl (DPPH, Sigma-Aldrich; 50 mM) in ethanol for 30 min, and the absorbance was measured at 520 nm using a Multiskan Spectrum Microplate Reader (Thermo Fisher Scientific).[72] The positive control ascorbic acid (Sigma-Aldrich; 25 μM) scavenged DPPH radicals by 36 ± 11%.

human recombinant sEH = biological target: T2, human recombinant sEH (Homo sapiens, UniProt P34913); experiment: sEH activity; format: biochemical
T2 construct: made in house; host or cells: Sf9 insect cells (recombinant baculovirus)
T2 sequence (P34913 whole entry): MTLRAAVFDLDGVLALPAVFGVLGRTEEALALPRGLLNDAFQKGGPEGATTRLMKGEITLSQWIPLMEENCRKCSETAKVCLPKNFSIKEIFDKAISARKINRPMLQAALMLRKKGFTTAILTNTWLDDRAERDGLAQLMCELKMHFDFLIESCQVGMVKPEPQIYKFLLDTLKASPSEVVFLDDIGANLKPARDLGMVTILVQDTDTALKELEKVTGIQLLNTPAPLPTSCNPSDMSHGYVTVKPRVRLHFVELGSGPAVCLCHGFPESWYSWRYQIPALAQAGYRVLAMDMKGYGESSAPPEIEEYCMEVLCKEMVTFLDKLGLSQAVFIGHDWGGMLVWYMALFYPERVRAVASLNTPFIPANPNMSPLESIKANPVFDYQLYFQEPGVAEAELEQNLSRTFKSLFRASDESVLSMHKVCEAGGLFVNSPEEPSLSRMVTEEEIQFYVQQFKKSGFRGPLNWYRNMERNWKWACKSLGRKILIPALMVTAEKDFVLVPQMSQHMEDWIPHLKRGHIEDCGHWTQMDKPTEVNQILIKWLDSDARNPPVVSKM
Protocol: Human recombinant sEH was expressed in Sf9 insect cells and purified by affinity chromatography.[83] Briefly, Sf9 cells were infected with a recombinant baculovirus and lysed after 72 h in 50 mM NaHPO4 pH 8, 300 mM NaCl, 10% glycerol, 1 mM EDTA, 1 mM phenylmethanesulfonyl fluoride, 10 μg/mL leupeptin, and 60 μg/mL STI by sonication (3 × 10 s, 4 °C). […] Elution with 4-fluorochalcone oxide in PBS pH 7.4 with 1 mM dithiothreitol and 1 mM EDTA yielded sEH, which was dialyzed and concentrated.
Purified sEH (60 ng) in 25 mM Tris HCl pH 7 with 0.1 mg/mL bovine serum albumin (BSA) was preincubated with the vehicle (DMSO) or 27a for 10 min at room temperature. The sEH substrate PHOME (50 μM, Cayman Chemicals) was added to start the enzymatic reaction, which was stopped after 60 min in darkness by addition of ZnSO4 (200 mM). The formation of the fluorescent product 6-methoxynaphtaldehyde was measured using a NOVOstar fluorescence microplate reader (BMG Labtech, Ortenberg, Germany), with excitation at 330 and emission at 465 nm.

CYP3A4 = CYP3A4 expression in differentiated HepaRG cells; format: cell-based, human; settings: 48 h
Protocol: HepaRG cells were seeded at a density of 2.6 × 10^4 cells/cm^2 in Williams’ E medium supplemented with 2 mM GlutaMAX (Thermo Fisher Scientific, Waltham, MA), 100 U/mL penicillin, 100 μg/mL streptomycin, 10% HyClone FCS (Thermo Fisher Scientific), 5 μg/mL insulin, and […] hydrocortisone-hemisuccinate. At confluence after two weeks, HepaRG cells were shifted to a medium supplemented with 1.7% DMSO for two additional weeks to obtain confluent differentiated cultures containing equal proportions of hepatocyte-like and progenitors/primitive biliary-like cells. These differentiated hepatic cell cultures were exposed to the compounds in Williams’ E medium supplemented with 2% FCS plus 0.2% DMSO for 48 h. […]
The assay plate was imaged and analyzed using the Cell Health Profiling BioApplications (HCS Studio Cellomics software Version x.6.4.3 (Build 7207)) on the ArrayScan VTI HCS Reader (Thermo Fisher Scientific—Cellomics, Pittsburgh, PA) using the 20× objective (Zeiss, LD Plan Neofluar 20×/0.4 korr). […]
The CYP3A4 expression was quantified using an arbitrary unit of fluorescent mass representing the combination of intensity and area adjusted to cell number calculated by nuclei counting (Hoechst).

PMNL = experiment: Intracellular uptake by PMNL; format: cell-based, human; settings: 150 nM for 20 min
Protocol: Cells were centrifuged (1200g, 5 min, 4 °C) and washed thrice with PBS pH 7.4 with 0.1% fatty-acid-free BSA (Sigma-Aldrich). Compounds were extracted and analyzed by UPLC-MS/MS as described below for LCMs and derivatives. The intracellular concentrations of 27a and 12a were calculated assuming a spherical cell shape with a diameter of 13 μm (as measured using a Vi-CELL Series Cell Counter, Beckman Coulter, Krefeld, Germany) and an equal intracellular distribution. 13d (9 pmol) was used as the internal standard.

[2] = tested on: mice sensitized to ovalbumin; experiment: Experimental model of murine asthma (ovalbumin sensitization); format: in vivo; settings: 10 mg/kg p.o.
Protocol: Male CD-1 mice (33–39 g, 6–8 weeks, Charles River Laboratories; Calco, Italy) and female BALB/c mice (20 g, 8 weeks, Charles River Laboratories) were fed with standard rodent chow and water and acclimated for 4 days at a 12 h light and 12 h dark schedule in a constant air-conditioned environment (21 ± 2 °C). Mice were randomly assigned to groups, and experiments were carried out during the light phase.
BALB/c mice received 27a (p.o.) or vehicle (0.5% carboxymethylcellulose in 10% Tween 20; 0.5 mL) on days 0 and 7, 1 h (p.o) before being sensitized to ovalbumin (100 μg adsorbed to 3.3 mg of aluminum hydroxide gel, s.c., Sigma-Aldrich). Mice were sacrificed on days 1, 3, 8, 10, or 21 to collect lung and plasma. Bronchi were cut in rings of 1 to 2 mm length, placed in organ baths, and fixed to an isometric force transducer 7006 connected to a Powerlab 800 (AD Instruments, Ugo Basile, Comerio, Italy). After stretching the rings to a resting tension of 0.5g and equilibration for at least 30 min, the rings were challenged with carbachol (1 μM) until a reproducible response was observed. To assess bronchial reactivity, the cumulative response to carbachol (0.001 to 3.16 μM) was measured. Bronchial relaxation was determined from the cumulative response of precontracted bronchial tissues to salbutamol. Compound 27a, LTB4, and LTB4 isomers were analyzed in plasma and lung homogenates by UPLC-MS/MS. Lung tissue (100 mg/mL) was homogenized in PBS pH 7.4 at 4 °C for 1–2 min using an Omni tissue homogenizer (Omni, Kennesaw, GA).

T1 sequence (P05979 25-600): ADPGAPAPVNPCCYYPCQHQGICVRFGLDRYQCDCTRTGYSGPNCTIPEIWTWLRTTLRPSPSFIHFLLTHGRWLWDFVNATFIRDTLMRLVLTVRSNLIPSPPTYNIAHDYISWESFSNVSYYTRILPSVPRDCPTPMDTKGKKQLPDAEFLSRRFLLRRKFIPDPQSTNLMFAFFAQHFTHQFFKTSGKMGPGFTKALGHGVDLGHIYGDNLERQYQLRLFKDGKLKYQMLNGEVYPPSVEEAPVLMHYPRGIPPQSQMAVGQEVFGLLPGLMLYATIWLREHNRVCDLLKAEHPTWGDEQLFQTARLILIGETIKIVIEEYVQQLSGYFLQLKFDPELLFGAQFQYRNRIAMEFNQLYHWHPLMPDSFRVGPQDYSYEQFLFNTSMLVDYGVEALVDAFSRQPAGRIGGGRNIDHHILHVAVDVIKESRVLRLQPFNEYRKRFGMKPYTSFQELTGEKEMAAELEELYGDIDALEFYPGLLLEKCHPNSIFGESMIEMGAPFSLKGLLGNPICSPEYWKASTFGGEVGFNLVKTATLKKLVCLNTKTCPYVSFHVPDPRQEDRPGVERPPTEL

C/C(=C\CC/C(C)=C/CC[C@]1(C)CCc2c(C)c(O)c(C)c(C)c2O1)CCC=C(CO)CO [Compound 27a, α-amplexichromanol]
COX-1 inhibition (isolated ovine enzyme) (ovine COX-1): not substantially inhibited | Concentrations with antioxidative properties (radical scavenging) versus 5-LOX inhibition [1]: exceed those that effectively inhibit 5-LOX | sEH inhibition (human recombinant sEH): not substantially inhibited | CYP450 enzyme (CYP3A4) expression (CYP3A4): did not induce CYP450 enzyme expression | Intracellular accumulation in PMNL (PMNL): strongly accumulates in PMNL | Lung levels of LTB4 and its isomers ([2]; day 3): lowered lung levels of LTB4 and its isomers | Adrenergic bronchial relaxation induced by salbutamol ([2]; day 21): fully restored the adrenergic bronchial relaxation induced by salbutamol | Ovalbumin-induced bronchial hyperreactivity to carbachol ([2]; day 21): blocked ovalbumin-induced bronchial hyperreactivity to carbachol
